Results as given in patent US9611232B2, “Oxazolidinone and imidazolidinone compounds” (Hoffmann-La Roche Inc., priority 2012, dated 2017).
Values joined by “and” are separate entries in the source; they are usually repeats but may differ in a detail not shown here. Identical values can stand only once.

The molecules below were run against KCa3.1 (Homo sapiens (Human), UniProt O15554) (assay: Thallium influx assay (FLIPR, FluxOR)). Details: CHOK1 cells over-expressing KCa3.1; thallium (3.3 mM)/ionomycin (1 μM) activation.
Assay type: cell-based
Experimental: The thallium influx assay was performed with CHOK1 cells over-expressing KCa3.1 obtained from Evotec and maintained in MEM Alpha medium supplemented with 10% fetal bovine serum, 100 U/ml penicillin/[…] streptomycin and 250 μg/ml G418.
CHOK1 wild type cells were passaged using F12/Ham's medium supplemented with 10% fetal bovine serum, 2 mM glutamine, 100 U/ml penicillin/[…] streptomycin. All cells were cultured in T175 flasks.
Before the day of the assay, cells were harvested from culture flasks using standard trypsin digestion. Cells were counted and densities adjusted and dispensed into 384-well poly-D-lysine coated plates at 7500 […], assay plates were incubated overnight in CO2 incubator at 37° C.
The following day, growth media was removed followed by the addition of 25 ul/well of FluxOR™ (Invitrogen) loading dye in a gluconate based assay buffer (135 mM NaGluconate,
2.5 mM Kgluconate, 2 mM CaNO3, 1 mM MgNO3, 10 mM HEPES (acid), 5 mM glucose pH adjusted to 7.4). Assay plates were incubated for 1 hour at 37° C. The loading dye was then replaced with gluconate assay buffer containing probenecid.
Compounds diluted in gluconate buffer were transferred into the assay plates (25 μl/well) followed by incubation for 20 minutes at room temperature. The assay plates were then transferred to a Fluorometric Imaging Plate Reader (FLIPR), a baseline was read for twenty second capture, followed by the addition of 25 μl/well of channel activation solution in gluconate buffer—for KCa3.1 cells thallium (3.3 mM)/ionomycin(1 μM) was used and for the wild type, ionomycin only, then fluorescence was monitored for another 90 seconds.

Row | Structure (SMILES) | IC50
1 | CCOC(=O)CN1C(=O)O[C@@H](c2ccc(F)cc2)[C@H]1c1cccc(C(F)(F)F)c1 (racemic) [Example 31, [(4RS,5SR)-5-(4-Fluoro-phenyl)-2-oxo-4-(3-trifluoromethyl-phenyl)-oxazolidin-3-yl]-acetic acid ethyl ester] | 7540 nM
2 | CCOC(=O)CN1C(=O)O[C@@H](c2cccc(C(F)(F)F)c2)[C@H]1c1cccc(C(F)(F)F)c1 (racemic) [Example 33] | 1560 nM
3 | CCOC(=O)CN1C(=O)O[C@@H](c2ccc(F)cc2)[C@H]1c1ccc(F)cc1 (racemic) [Example 34] | 6700 nM
4 | CNC(=O)CN1C(=O)O[C@@H](c2cccc(C(F)(F)F)c2)[C@H]1c1ccc(F)cc1 (racemic) [Example 36] | 6600 nM
5 | CCNC(=O)CN1C(=O)O[C@@H](c2cccc(C(F)(F)F)c2)[C@H]1c1ccc(F)cc1 (racemic) [Example 37] | 4900 nM
6 | N#CCN1C(=O)O[C@@H](c2cccc(C(F)(F)F)c2)[C@H]1c1ccc(F)cc1 (racemic) [Example 38] | 1600 nM
7 | O=C1O[C@@H](c2cccc(C(F)(F)F)c2)[C@@H](c2ccc(F)cc2)N1Cc1ncco1 (racemic) [Example 39, (4RS,5SR)-4-(4-fluorophenyl)-3-(oxazol-2-ylmethyl)-5-(3-(trifluoromethyl)phenyl)oxazolidin-2-one] | 11000 nM
8 | Cc1coc(CN2C(=O)O[C@@H](c3cccc(C(F)(F)F)c3)[C@H]2c2ccc(F)cc2)n1 (racemic) [Example 40] | 6900 nM
9 | NC(=O)CN1C(=O)OC(c2ccccc2F)(c2ccccc2F)[C@@H]1c1ccccc1 [Example 2, 2-[(S)-5,5-Bis-(2-fluoro-phenyl)-2-oxo-4-phenyl-oxazolidin-3-yl]-acetamide] | 830 nM
10 | NC(=O)CN1C(=O)OC(c2cccc(F)c2)(c2cccc(F)c2)[C@@H]1c1ccccc1 [Example 3, 2-[(S)-5,5-Bis-(3-fluoro-phenyl)-2-oxo-4-phenyl-oxazolidin-3-yl]-acetamide] | 630 nM
11 | CCOC(=O)CN1C(=O)OC(c2ccc(F)cc2)(c2ccc(F)cc2)C1c1ccc(F)cc1F (stereo not shown) [Example 4, [4-(2,4-Difluoro-phenyl)-5,5-bis-(4-fluoro-phenyl)-2-oxo-oxazolidin-3-yl]-acetic acid ethyl ester] | 3140 nM
12 | NC(=O)CN1C(=O)OC(c2ccc(F)cc2)(c2ccc(F)cc2)[C@@H]1c1ccc(F)cc1F [Example 5, 2-[(S)-4-(2,4-Difluoro-phenyl)-5,5-bis-(4-fluoro-phenyl)-2-oxo-oxazolidin-3-yl]-acetamide] | 660 nM and 1140 nM
13 | CCOC(=O)CN1C(=O)OC(c2ccc(F)cc2)(c2ccc(F)cc2)[C@@H]1c1ccc(F)cc1 [Example 6, [(S)-4,5,5-Tris-(4-fluoro-phenyl)-2-oxo-oxazolidin-3-yl]acetic acid ethyl ester] | 1340 nM
14 | NC(=O)CN1C(=O)OC(c2ccc(F)cc2)(c2ccc(F)cc2)C1c1c(F)cccc1F (stereo not shown) [Example 8, 2-[4-(2,6-Difluoro-phenyl)-5,5-bis-(4-fluoro-phenyl)-2-oxo-oxazolidin-3-yl]-acetamide] | 7150 nM
15 | NC(=O)CN1C(=O)OC(c2ccc(F)cc2)(c2ccc(F)cc2)C1c1cccc(F)c1 (stereo not shown) [Example 9, 2-(4-(3-fluorophenyl)-5,5-bis(4-fluorophenyl)-2-oxooxazolidin-3-yl)acetamide] | 6050 nM
16 | CCOC(=O)CN1C(=O)OC(c2ccc(F)cc2)(c2ccc(F)cc2)[C@@H]1c1ccccc1F [Example 10, [5,5-Bis-(4-fluoro-phenyl)-4-(2-fluoro-phenyl)-2-oxo-oxazolidin-3-yl]-acetic acid ethyl ester] | 1900 nM

Row | Structure (SMILES) | IC50
17 | CCOC(=O)CN1C(=O)OC(c2ccccc2F)(c2ccccc2F)[C@@H]1c1ccccc1F [Example 12, [(S)-4,5,5-Tris-(2-fluoro-phenyl)-2-oxo-oxazolidin-3-yl]acetic acid ethyl ester] | 1100 nM
18 | CCOC(=O)CN1C(=O)OC(c2cccc(F)c2)(c2cccc(F)c2)[C@@H]1c1ccccc1F [Example 14, [(S)-5,5-Bis-(3-fluoro-phenyl)-4-(2-fluoro-phenyl)-2-oxo-oxazolidin-3-yl]-acetic acid ethyl ester] | 3600 nM
19 | CCOC(=O)CN1C(=O)OC(c2ccccc2)(c2ccccc2)[C@@H]1c1ccccc1F [Example 16, [(S)-4-(2-Fluoro-phenyl)-2-oxo-5,5-diphenyl-oxazolidin-3-yl]-acetic acid ethyl ester] | 1000 nM
20 | NC(=O)CN1C(=O)NC(c2ccc(F)cc2)(c2ccc(F)cc2)[C@@H]1c1ccccc1 [Example 18, (S)-2-(4,4-bis(4-fluorophenyl)-2-oxo-5-phenylimidazolidin-1-yl)acetamide] | 3700 nM
21 | Cc1ccccc1[C@@H]1N(CC(N)=O)C(=O)OC1(c1ccc(F)cc1)c1ccc(F)cc1 [Example 20, 2-[(S)-5,5-Bis-(4-fluoro-phenyl)-2-oxo-4-o-tolyl-oxazolidin-3-yl]-acetamide] | 2200 nM
22 | COC(=O)CN1C(=O)OC(c2ccc(F)cc2)(c2ccc(F)cc2)[C@@H]1c1ccccc1F [Example 21, (S)-methyl 2-(4-(2-fluorophenyl)-5,5-bis(4-fluorophenyl)-2-oxooxazolidin-3-yl)acetate] | 650 nM
23 | CNC(=O)CN1C(=O)OC(c2ccc(F)cc2)(c2ccc(F)cc2)[C@@H]1c1ccccc1F [Example 22, (S)-2-(4-(2-fluorophenyl)-5,5-bis(4-fluorophenyl)-2-oxooxazolidin-3-yl)-N-methylacetamide] | 600 nM
24 | CCNC(=O)CN1C(=O)OC(c2ccc(F)cc2)(c2ccc(F)cc2)[C@@H]1c1ccccc1F [Example 23, (S)—N-ethyl-2-(4-(2-fluorophenyl)-5,5-bis(4-fluorophenyl)-2-oxooxazolidin-3-yl)acetamide] | 1960 nM
25 | N#CCN1C(=O)OC(c2ccc(F)cc2)(c2ccc(F)cc2)[C@@H]1c1ccccc1F [Example 24, [(S)-5,5-Bis-(4-fluoro-phenyl)-4-(2-fluoro-phenyl)-2-oxo-oxazolidin-3-yl]-acetonitrile] | 1480 nM
26 | O=C1OC(c2ccc(F)cc2)(c2ccc(F)cc2)[C@H](c2ccccc2F)N1Cc1nnc[nH]1 [Example 25, (S)-3-((4H-1,2,4-triazol-3-yl)methyl)-4-(2-fluorophenyl)-5,5-bis(4-fluorophenyl)oxazolidin-2-one] | 10000 nM
27 | CCOC(=O)CN1C(=O)OC(c2ccc(F)cc2)(c2ccc(F)cc2)C1c1cccnc1 (stereo not shown) [Example 26, Ethyl 2-(5,5-bis(4-fluorophenyl)-2-oxo-4-(pyridin-3-yl)oxazolidin-3-yl)acetate] | 9200 nM
28 | NC(=O)CN1C(=O)OC(c2ccc(F)cc2)(c2ccc(F)cc2)C1c1cccnc1 (stereo not shown) [Example 27, 2-(5,5-bis(4-fluorophenyl)-2-oxo-4-(pyridin-3-yl)oxazolidin-3-yl)acetamide] | 6700 nM
29 | NC(=O)CN1C(=O)OC(c2ccc(F)c(F)c2)(c2ccc(F)c(F)c2)[C@@H]1c1ccccc1 [Example 28, (S)-2-(5,5-bis(3,4-difluorophenyl)-2-oxo-4-phenyloxazolidin-3-yl)acetamide] | 770 nM
30 | NC(=O)CN1C(=O)OC(c2cccc(Cl)c2)(c2cccc(Cl)c2)[C@@H]1c1ccccc1 [Example 29, 2-[(S)-5,5-Bis-(3-chloro-phenyl)-2-oxo-4-phenyl-oxazolidin-3-yl]-acetamide] | 6700 nM
31 | NC(=O)CN1C(=O)OC(c2ccc(F)cc2)(c2ccc(F)cc2)C1c1ccccn1 (stereo not shown) [Example 30, 2-(5,5-bis(4-fluorophenyl)-2-oxo-4-(pyridin-2-yl)oxazolidin-3-yl)acetamide] | 17500 nM
